According to patent US11541041B1, “Compounds that interact with the Ras superfamily for the treatment of cancers, inflammatory diseases, Rasopathies, and fibrotic disease” (Shy Therapeutics LLC, priority 2017, dated 2023):
pIC50: −log10 of the molar value. Like-named read-outs stand apart in the source and are kept apart here.

Tests used:
[1] = system: MIA-PACA2 pancreatic cancer cell lines; assay: Cell proliferation assay (CellTiter 96 AQueous One); type: cell-based; conditions: Homo sapiens, MIA PaCa-2; 30 μM, MIA-PACA2
Description: (§1) Cell lines: Tumor-derived pancreatic cancer cell lines MIA-PACA2 were purchased from ATCC and grown in complete DMEM-High Glucose medium supplemented with penicillin (100 U/mL), streptomycin (100 μg/mL), and 10% heat-inactivated FBS at 37° C. in a humidified incubator with 5% CO2.
Method: Cells are plated at 1000 cells/well density in 96-wells plate, starved ON, and the next day tested small molecules are added to the cells in the final concentration of 30 μM with 0.3% DMSO 3 hours prior to 10% FBS addition. After serum addition cells are incubated for 6 days at 37° C. in a humidified incubator with 5% CO2. For IC50 value determination, serial dilutions of compounds were added to cells under the same conditions.
Assay: At the end of the incubation period, cell cultures are tested using the CellTiter 96® AQueous One Solution Cell Proliferation Assay kit (Promega Corporation, Madison, Wis.) according to the manufacturer specifications. Briefly, assay is performed by adding 20 μl of the CellTiter 96 Aqueous One Solution Reagent directly to culture wells, followed by for 1-4 hours incubation at 37° C. in a humidified incubator with 5% CO2. At the end of incubation time, absorbance at 492 nm is recorded with the 96-well plate reader Eppendorf AF2200, and degree of small molecule-dependent proliferation inhibition is calculated from raw data assuming No Serum cells value as 100%.

KRas G12D mutant protein = KRas G12D mutant protein (Homo sapiens (Human), UniProt P01116, G12D); assay: Ras GTP binding domain inhibition assay
Description: The following method was developed as specific assay for KRas G12D mutant protein.
(§2) Buffer-I: • 50 mM Tris, pH 7.5 • 150 mM NaCl (optional) • 1 mM MgCl2 • 1 mM DTT. • KRas G12D mutant protein was expressed as a His-tagged protein. Purified His-KRas G12D protein was diluted in buffer-I to a final concentration of 3-10 μg/ml. • 200 μl of the diluted His-KRas G12D protein was added to a nickel coated 96 well plate and incubated overnight at 4° C. • The next day, wells were washed 3× in 200 μl of Buffer-I. • Then 200 μl of Buffer-I were added to each well in the presence of 1% DMSO. • Tested compounds were added to the protein-coated wells at a concentration of 20 μM, and incubated for 3 hours at room temperature. While performing IC50 measurements a serial dilution of all tested concentrations was prepared.
(§3) Then 22 μl of Cy3-GTP or Cy5-GTP was added to each well. The labeled GTP was incubated for 45 min. at room temperature. • Following GTP incubation, wells were washed 3× in Buffer-I, and 200 μl of Buffer-I were added to each well. • Following washes, the amount of bound labeled-GTP was measured with an Eppendorf AF2200 plate reader.

KRas wild type = KRas wild type (Homo sapiens (Human), UniProt P01116); assay: Ras GTP binding domain inhibition assay; conditions: 20 μM compound
Description: as §2, §3
(§4) By substituting KRas G12D mutant protein with KRas G12C mutant, KRas wild type, KRas Q61H mutant, KRas G12D/Q61H double mutant or KRas G12C/Q61H double mutant under the assay conditions described above, KRas G12C mutant KRas wild type, KRas Q61H mutant, KRas G12D/Q61H double mutant and KRas G12C/Q61H double mutant inhibition, respectively, were each determined.

KRas G12C mutant = KRas G12C mutant (Homo sapiens (Human), UniProt P01116, G12C); assay: Ras GTP binding domain inhibition assay; conditions: 20 μM compound
Description: as §2, §3, §4

[2] = molecular target: KRas G12D/Q61H double mutant (Homo sapiens (Human), UniProt P01116, G12D/Q61H); assay: Ras GTP binding domain inhibition assay
Description: as §2, §3, §4

[3] = system: MIA-PACA2 pancreatic cancer cell lines; assay: Cell proliferation assay, alternate assay conditions (DAPI staining); type: cell-based; conditions: Homo sapiens, MIA PaCa-2; for inhibition at 10 µM: * = tested at 10 μM, alternate conditions, MIA-PACA2
Description: as §1
Method: Cells are plated at 4000 cells/well density in 96-wells plate. The next day tested small molecules are added to the cells in the final concentration of 10 μM in the presence of 0.3% DMSO and 10% FBS. After small molecules addition, cells are incubated for 4 days at 37° C. in a humidified incubator with 5% CO2. For IC50 value determination, serial dilutions of compounds were added to cells under the same conditions.
Assay: At the end of the incubation period, cell cultures are fixed with a 50-50 mixture (v/v) acetone-methanol for 10 minutes at −20° C., followed by rehydration in PBS for 10 minutes at room temperature. After rehydration, cells are stained with DAPI (1 μg/ml) in PBS for 10 minutes at room temperature, followed by 3 washes with PBS. After staining, DAPI fluorescence is recorded (358 nm excitation/461 nm emission) with the 96-well plate reader Molecular Devices Spectramax M3; degree of small mole-cule-dependent proliferation inhibition is calculated from raw data assuming No Serum cells value as 100%.

[4] = molecular target: KRas G12C/Q61H double mutant (Homo sapiens (Human), UniProt P01116, G12C/Q61H); assay: Ras GTP binding domain inhibition assay; conditions: 20 μM compound
Description: as §2, §3, §4

KRas Q61H mutant = KRas Q61H mutant (Homo sapiens (Human), UniProt P01116, Q61H); assay: Ras GTP binding domain inhibition assay; conditions: 20 μM compound
Description: as §2, §3, §4

[5] = system: MAPK phosphorylation in PANC-1 pancreatic cancer cell line; assay: MAPK cell-based phosphorylation assay (cell-direct ELISA, EGF-stimulated); conditions: Homo sapiens
Description: Cell lines: Tumor-derived pancreatic cancer cell lines PANC-1 were purchased from ATCC and were maintained according to ATCC recommendation.
Method: Cells were plated at 7500 cells/well density in 96-wells plate, starved over night, and the small molecules to be tested were added to the cells in the final concentration of 30 μM with 0.3% DMSO for 6 hours incubation at 37° C. For IC50 value determination, serial dilutions of compounds were added to cells under the same conditions. Next, cells were stimulated with 1.5 ng/ml EGF for 15 min. followed by cell fixation with 4% Formaldehyde in PBS at RT for 20 min. Phosphorylation level of MAPK was determined by Cell-direct ELISA.
Cell-direct ELISA: For each well, cells were permeabilized with PBS-Triton 0.1%, quenched with H2O2 0.6% in PBS-Triton 0.1%, and probed with anti-phospho-MAPK antibodies (R&D Systems) followed by HRP-conjugated secondary antibody (Jackson Immunoresearch, West Grove, Pa.). Next, a solution 50 μM of the fluorescent substrate AmpliFlu Red (Sigma) was added and incubated at RT for 20 min. At the end of the incubation time, fluorescence was measured at 595 nm on a microplate reader (AF2200; Eppendorf, Inc., Hamburg, Germany).

Rho-A = Rho-A (Homo sapiens (Human), UniProt P61586); assay: Rac and Rho inhibition assay; type: binding; conditions: read-out: Rho-A % Inh.
Description: as §2, §3
(§5) By substituting KRas G12D mutant protein with either Rac-1 or Rho-A under the assay conditions described in Example 5, Rac-1 and Rho-A inhibition, respectively, were each determined.

Rac-1 = Rac-1 (Homo sapiens (Human), UniProt P63000); assay: Rac and Rho inhibition assay; type: binding; conditions: read-out: Rac-1 % Inh.
Description: as §2, §3, §5

[6] = 20 μM compound, read-out: % Inhibition at 20 μM, KRas G12D
[7] = 20 μM compound, read-out: % Inhibition at 20 μM, KRas G12D Q61H

Chain of KRas G12D/Q61H double mutant (P01116-2 other isoform, or with tags, fused parts or gaps G12D/Q61H): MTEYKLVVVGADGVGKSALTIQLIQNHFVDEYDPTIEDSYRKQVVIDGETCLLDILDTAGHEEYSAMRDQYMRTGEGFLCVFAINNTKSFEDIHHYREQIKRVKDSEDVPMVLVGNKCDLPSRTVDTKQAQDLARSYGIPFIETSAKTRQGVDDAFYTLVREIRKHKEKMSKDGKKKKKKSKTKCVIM
Chain of KRas Q61H mutant (P01116-2 other isoform, or with tags, fused parts or gaps Q61H): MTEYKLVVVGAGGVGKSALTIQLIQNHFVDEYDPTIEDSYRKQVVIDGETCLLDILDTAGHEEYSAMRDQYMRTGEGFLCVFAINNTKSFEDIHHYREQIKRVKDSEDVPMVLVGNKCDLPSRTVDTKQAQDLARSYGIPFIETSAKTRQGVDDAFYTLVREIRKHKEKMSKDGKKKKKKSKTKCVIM
Chain of KRas G12D mutant protein (P01116-2 other isoform, or with tags, fused parts or gaps G12D): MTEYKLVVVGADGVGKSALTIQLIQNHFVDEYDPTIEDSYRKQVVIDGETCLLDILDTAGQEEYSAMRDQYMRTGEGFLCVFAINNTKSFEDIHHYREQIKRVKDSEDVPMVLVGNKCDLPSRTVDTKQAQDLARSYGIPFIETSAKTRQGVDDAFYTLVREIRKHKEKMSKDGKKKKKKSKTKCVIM
Chain of KRas wild type (P01116-2 other isoform, or with tags, fused parts or gaps): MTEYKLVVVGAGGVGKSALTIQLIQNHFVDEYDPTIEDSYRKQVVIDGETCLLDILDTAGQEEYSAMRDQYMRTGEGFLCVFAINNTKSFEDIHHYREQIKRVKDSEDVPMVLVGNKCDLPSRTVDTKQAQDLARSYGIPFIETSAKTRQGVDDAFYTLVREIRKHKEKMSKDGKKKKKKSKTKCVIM
Chain of KRas G12C mutant (P01116-2 other isoform, or with tags, fused parts or gaps G12C): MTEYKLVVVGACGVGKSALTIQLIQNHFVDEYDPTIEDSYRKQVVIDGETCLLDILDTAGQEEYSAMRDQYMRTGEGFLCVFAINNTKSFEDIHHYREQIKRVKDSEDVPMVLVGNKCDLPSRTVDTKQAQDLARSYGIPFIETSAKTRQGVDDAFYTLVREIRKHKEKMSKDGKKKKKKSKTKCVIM
Chain of KRas G12C/Q61H double mutant (P01116-2 other isoform, or with tags, fused parts or gaps G12C/Q61H): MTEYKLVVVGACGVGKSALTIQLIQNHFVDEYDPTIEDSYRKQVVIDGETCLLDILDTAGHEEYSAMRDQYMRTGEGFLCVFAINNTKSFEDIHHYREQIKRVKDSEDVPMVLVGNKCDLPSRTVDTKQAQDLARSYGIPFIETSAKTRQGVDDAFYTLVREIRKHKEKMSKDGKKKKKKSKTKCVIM
Chain of Rho-A (P61586 whole entry): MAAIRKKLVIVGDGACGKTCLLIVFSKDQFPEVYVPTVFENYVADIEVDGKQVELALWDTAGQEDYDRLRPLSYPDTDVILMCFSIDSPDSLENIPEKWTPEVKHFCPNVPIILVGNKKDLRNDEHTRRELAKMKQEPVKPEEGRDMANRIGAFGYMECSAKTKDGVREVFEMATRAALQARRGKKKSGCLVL

`O=C(NCCc1cnc(O)nc1)c1csc2nc(-c3ccccn3)nc(N3CCSCC3)c12` [drawing 1764] was tested, and the inhibition at 30 µM [1] was 1 to 25%.
`Cc1ccc(-c2csc3c(O)nc(-c4nccn4C)nc23)c(F)c1` gave an inhibition at 20 µM (KRas G12D mutant protein; [6]) of 25 to 50%, an inhibition at 20 µM (KRas wild type) of 1 to 25% and an inhibition at 20 µM (KRas G12C mutant) of 1 to 25%.
For `O=C(CCCc1cccnc1)N1CCCc2c(O)nc(C3C=CC=CN3)nc21` (centres unmarked), the inhibition at 20 µM (KRas G12D mutant protein; [6]) was 51 to 75%, the inhibition at 20 µM (KRas wild type) was 25 to 50% and the inhibition at 20 µM [2, 7] was 51 to 75%. The inhibition at 20 µM (KRas G12C mutant) was 51 to 75%.
Work on `Cn1ccnc1-c1nc(NCCOS)c2c(-c3ccccn3)c(-c3ccccc3)sc2n1` yielded an inhibition at 10 µM [3] of 76 to 100% and a pIC50 ([3]; MIA-PACA2 proliferation, same assay as % inhibition (alternate conditions)) of 6.00 to 6.30.
`Nc1nc(-c2ccccn2)nc2c(CC3CNC3)csc12` gave an inhibition at 20 µM [2, 7] of 25 to 50%, an inhibition at 20 µM [4] of 51 to 75% and an inhibition at 20 µM (KRas Q61H mutant) of 51 to 75%.
Compound `COc1nc(-c2ccccn2)nc2c(-c3cn(C)nc3C(C)C)csc12` has an inhibition at 10 µM [3] of 76 to 100%.
Work on `Oc1nc(-c2ccccn2)nc2c(-c3ccccc3)csc12` yielded an inhibition at 10 µM ([5]; * = tested at 10 μM) of 25 to 50%.
In the case of `COCCNc1nc(-c2nccn2C)nc2sc(-c3ccccc3)c(-c3ccccc3)c12` [drawing 3594], the “% Inhibition at 20 μM, KRas G12D” value (KRas G12D mutant protein; 20 μM compound) was “B (B = 25-50% inhibition)”, the “% Inhibition at 20 μM, KRas wild type” value (KRas wild type) was “B (B = 25-50% inhibition)” and the “% Inhibition at 20 μM, KRas G12C” value (KRas G12C mutant) was “A (A = 1-25% inhibition)”.
`O=C(CCc1c[nH]c2ccccc12)Nc1nnc(-c2cccnc2)[nH]1` showed an inhibition at 30 µM ([5]; 30 μM) of 25 to 50%.
`Nc1nc(-c2ccccn2)nc2c(CC3CCNCC3)csc12` gave an inhibition at 20 µM (KRas G12D mutant protein; at 20 μM, read-out: KRas G12D % Inh.) of 51 to 75%, an inhibition at 20 µM (Rho-A) of 76 to 100% and an inhibition at 20 µM (Rac-1) of 51 to 75%. It also gave an inhibition at 20 µM ([2]; at 20 μM, read-out: KRas G12D Q61H % Inh.) of 51 to 75%.
`COc1nc(-c2ccccn2)nc2c(-c3cccc(C#N)c3)csc12` gave an inhibition at 10 µM [3] of 76 to 100%.
`COC(=O)c1c(C)sc2c(O)nc(-c3ccccn3)nc12` was tested, and the “% Inhibition at 20 μM, KRas Q61H” value (KRas Q61H mutant) was “D (D = 76-100% inhibition)”.
`COCCCCNC(=O)c1csc2nc(-c3ccccn3)nc(N3CCSCC3)c12` was tested, and the inhibition at 30 µM [1] was 1 to 25%.
`Nc1nc(-c2ccccn2)nc2c(C3CC3)csc12` gave an inhibition at 20 µM (KRas G12D mutant protein; [6]) of 51 to 75%, an inhibition at 20 µM (KRas wild type) of 25 to 50% and an inhibition at 20 µM [2, 7] of 25 to 50%. It also gave an inhibition at 20 µM (KRas G12C mutant) of 25 to 50%, an inhibition at 20 µM [4] of 1 to 25% and an inhibition at 20 µM (KRas Q61H mutant) of 25 to 50%.
Compound `COc1cncc(CCNC(=O)c2csc3nc(-c4ccccn4)nc(N4CCOCC4)c23)c1` has an inhibition at 30 µM [1] of 51 to 75%.
For `COCCOCCN(CCO)C(=O)c1csc2c(O)nc(-c3ccccn3)nc12`, the inhibition at 30 µM [1] was 1 to 25%.
In the case of `Nc1nc(-c2ccccn2)nc2c(C(=O)N3CC4CC3CN4c3ccccc3)csc12` (centres unmarked), the inhibition at 30 µM [1] was 76 to 100%.
